According to US4575459A, “Toxoids of elastase of Pseudomonas aeruginosa origin” (Toho Yakuhin Kogyo Kabushiki Kaisha, priority 1984, dated 1986):
Several values for one entry are separate records, joined by “and”; a condition that tells them apart may be missing. Equal entries are not always repeated.

What was measured:
rabbits [1] = test: Antigenicity test on rabbits, Test A: passive hemagglutinative value test (PHA test); assay type: in vivo, rabbit; details: reciprocal of serum dilution; individual rabbits, 1 mg s.c. with Freund's incomplete adjuvant 3 to 4 times, blood two weeks after last inoculation
Method: (§1) Method: Three rabbits, each having 2.5 Kg of a body weight, were subcutaneously inoculated with each 1 mg of Toxoid I together with Freund's incomplete adjuvant and the inoculation was repeated 3 to 4 times at an interval of 2 weeks. On the day of two weeks after the last inoculation, blood was collected from the rabbits and was availed for following Tests A, B and C. The same method as the preceeding was conducted employing Toxoid II.
(§2) The values were determined according to a method described by one of the present inventors, Y. Homma, in The Japan J. Exp. Med., Vol. 45, No. 5, pages 361-365 (1975), and the values were expressed as a reciprocal number to a multiplied number of the dilution of sera.

Casein = test: Proteinase activity on casein (Folin's method), specific activity in mPU; assay type: biochemical
Method: In Examples 1 and 2, the term "mPU/ml protein of a specific activity" signifies the proteinase activity determined by the following procedure:
Casein (2%, pH 7.4, 1 ml) is admixed with 1 ml of an appropriately diluted solution of an enzyme, and after a reaction at 40° C. for 10 minutes, 2.0 ml of a solution containing 0.1M trichloroacetic acid and 0.2M sodium acetate is immediately added for stopping a progress of the reaction. The mixture is kept at the same temperature for 20 minutes to precipitate unreacted casein completely and is filtered. 1 ml of the filtrate is subject to determination of tyrosine therein contained by the Folin's method. By the increase of 1γ of tyrosine per 1 minute, a proteinase activity of 1 mPU is to be indicated. 1 mPU×1,000 is equal to 1 PU.

rabbits [2] = test: Antigenicity test on rabbits, Test B: precipitation in agar-gel test; assay type: in vivo, rabbit; details: 22° C., 24 hours, dilution at which precipitation line first becomes observable, individual rabbits
Method: as §1
In 0.01M phosphate buffer-normal saline solution (pH 7.0) which contained 0.1% of sodium azide, agarose was dissolved to form a concentration of 1.5% by weight, and 10 ml of the solution were poured in a dish having 9 cm of a diameter and the solution was left to make the agar hard. Several holes were made on the hardened agar and antigens or antisera were separately poured into every hole and the agar was left at 22° C. for 24 hours long, then, the existence of a precipitation line was inspected. The concentration of antigens is expressed by a unit of μg/ml, wherein the numerator indicates a quantity of antigens and a denominator indicates the dilution volume which is required until a precipitation line will first becomes observable.

[3] = Antigenic activity listed among the identified properties of the toxoids; details: listed property
ddY mice [4] = test: PHA value on mice; assay type: in vivo, mouse; details: 50 μg with potassium alum three times, first and second collected bloods (just before and 14th day after third inoculation)
Method: as §2
(§3) To a solution of Toxoid I of this invention in a concentration of 0.5 mg/ml., an equal volume of 1% potassium alum solution was added. Each 0.2 ml of the solution, in which 50 μg of Toxoid I were contained, were inoculated into ddY mice of 4 weeks old respectively three times at an interval of 2 weeks. At just before and on the 14th day after the third inoculation, bloods were collected from each mouse and the values of PHA and elastase-neutralizing activity were inspected in the same manner as with Tests A and C in Experiment 1.

ddY mice [5] = test: Elastase-neutralizing activity on mice; assay type: in vivo, mouse
Method: (§4) Sera of the tested rabbits were warmed at 56° C. for 30 minutes and 0.2 ml of the sera were added to 0.2 ml of elastase solution, to which normal saline solution was added up to a volume of 2 ml in total. The solution was left for 60 minutes at 37° C., then, 1 ml of 2% casein solution was added to 1 ml of the solution. The residual elastase activity was determined with the thus mixed solution.
as §3

rabbits [6] = test: Antigenicity test on rabbits, Test C: elastase-neutralizing activity test of sera; assay type: in vivo, rabbit; details: elastase activity neutralized by 1 ml of anti-serum; individual rabbits
Method: as §1, §4

[7] = test system: Pseudomonas aeruginosa elastase; details: incubation of the reagent with the enzyme; Nishino and Powers, J. Biol. Chem. (1980); cited from earlier work
[8] = Antigenic activity of formalin-treated elastase samples by precipitation line (Table 1); assay type: binding; details: quantity of antigen per dilution volume until a precipitation line first becomes visible; larger numeral = less potent
From the text: Note: In the above Table 1, the antigenic activity is expressed by a unit of μg/ml, wherein the numerator indicates the quantity of antigen and the denominator indicates the dilution volume required until a precipitation line first becomes visible.

| Compound | PHA Value (rabbits [1]) | specific activity (Casein; casein 2%, pH 7.4, 40° C., 10 minutes) [mPU/mg protein] | Enzymatic activity (Casein; listed property) | Antigen Concentration (rabbits [2]) [µg/mL] | Antigenic activity [3] | PHA Value (ddY mice [4]) | elastase-neutralizing activity (ddY mice [5]; first collected blood (just before third inoculation)) [mPU/ml] | elastase-neutralizing activity (ddY mice [5]; second collected blood (14th day after third inoculation)) [mPU/ml] | Elastase-neutralizing Activity (mPU/ml) (rabbits [6]) | effect on enzyme activity of elastase [7] | Residual Proteinase Activity (%) (Casein; elastase samples treated with formalin (HCHO), Table 1) | Antigenic activity [8] [µg/mL] |
| --- | --- | --- | --- | --- | --- | --- | --- | --- | --- | --- | --- | --- |
| Toxoid I: toxoid prepared by inactivating Pseudomonas aeruginosa elastase with the Powers Reagent | 5120 and 2560 | 0.06 | Negative | 15 | Positive | 640 | 1.52 | 1.83 | 15 mPU/ml and 12 mPU/ml and 10 mPU/ml | – | – | – |
| CC(C)C[C@@H](C(=O)N[C@@H](C)C(=O)NCC(N)=O)N(O)C(=O)CCl [Powers Reagent, chloroacetyl-N-hydroxy-L-leucyl-L-alanylglycinamide] | – | – | – | – | – | – | – | – | – | progressive loss of enzyme activity | – | – |
| crystalline elastase: purified crystalline elastase obtained from Pseudomonas aeruginosa, raw material of the toxoids | – | – | – | 15 | – | – | – | – | – | – | 100 | 30 |
